Measurements published in US9340563B2, “Salts of isophosphoramide mustard and analogs thereof” (priority 2007, dated 2016).
≈ marks a conversion by molar mass, not a printed value. Where two headings read alike, the source gives them in different places.

Assays:
[1] = Solubility and reconstitution time (Example 16); type: physicochemical
[2] = type: physicochemical; settings: pH 7 buffer, approximately 25° C.
[3] = test system: MX-1 human mammary tumors; experiment: MX-1 human mammary tumor xenograft (Example 7); type: in vivo, athymic NCr-nu/nu mice
Method: Each concentration was then aliquoted for daily use, frozen, stored at −20° C., and thawed for daily use.
The control groups were treated either ip or po with the vehicle (saline).
Study Duration: The study was terminated 50 days after tumor implantation.

MX-1 human mammary tumor = MX-1 human mammary tumor xenograft (Example 8)
Description: Animal Care: Five-weeks-old female athymic NCr-nu/nu mice were purchased from Harlan (Prattville, Ala.).
Tumor Model: Thirty-to-forty mg fragments of MX-1 human mammary tumor maintained in an in vivo passage were implanted sc in mice in the mammary fat pad using a 12-gauge trocar needle and allowed to grow. The day of tumor implantation was designated as day 0. […] A sufficient number of mice were implanted so that tumors in a weight range as narrow as possible were selected for the trial on the day of treatment initiation (day 6 after tumor implantation). Those animals selected with tumors in the proper size range were assigned to the various treatment groups so that the median tumor weights on the first day of treatment were as close to each other as possible (144-162 mg).
All dosing solutions were kept on ice after formulation and were administered within 30 min. All injections were administered on the basis of exact body weight with the injection volume being 0.2 mL/10 g body weight.
Drug Treatment: The experiment consisted of 16 treatment groups of eight mice per group and two vehicle-treated control groups with ten mice each for a total of 148 mice on the first day of treatment. All agents (and vehicle) were administered daily for five consecutive days (q1d×5). […] The control groups were treated either ip (group no. 1) or po (group no. 10) with the vehicle (saline).
Tumor Measurements and Body Weights: The sc tumors were measured and the animals were weighed twice weekly starting with the first day of treatment. Tumor volume was determined by caliper measurements (mm) and using the formula for an ellipsoid sphere: L×W^2/2=mm^3, where L and W refer to the larger and smaller perpendicular dimensions collected at each measurement. This formula is also used to calculate tumor weight, assuming unit density (1 mm^3=1 mg.).
Study Duration: The study was terminated 52 days after tumor implantation. Any animal that became moribund or whose tumor became ulcerated and reached 4,000 mg was euthanized prior to study termination.
Parameters Evaluated: Number of nonspecific deaths, number of partial and complete tumor regressions, number of tumor-free survivors, and the individual animals' times to reach two tumor mass doublings were determined. The median time to reach two tumor mass doubling in the treatment groups (T) and control group (C) was used in the calculation of the overall delay in the growth of the median tumor (T-C).
Statistical Analysis: The individual animal's time to reach two tumor mass doublings was used as the endpoint in a Student's t-test/Mann Whitney rank sum test in order to compare statistically the growth data between groups.

pH (Example 16) = type: physicochemical
[4] = type: physicochemical; settings: temperature and duration of storage
[5] = test system: CPA-resistant human sarcoma cells (OS31 osteosarcoma); settings: mice with xenografts of CPA-resistant human sarcoma cells
Description: CB17 female scid*/* mice (Taconic Farms, Germantown, N.Y.) were implanted with tumor subcutaneous flank tumors. […] For transplantation with OS1 tumor, mice were anesthetized with 4% isoflurane. After a small incision was made in the flank of the mouse, and a 4 mm by 4 mm section of tumor implanted subcutaneously.
When the tumors were approximately 0.20 to 0.7 cm in diameter, tumor-bearing mice were randomized into groups of 5 to 8 mice with 1 treatment group and 1 control group. Treated mice received tasidotin at a dose of 90 mg/kg/day as an intraperitoneal injection daily for 5 days starting on days 1 and 21. Assuming a spherical tumor, the volume was determined by the formula: mm^3=*/6(D)d^2, where D is the maximal diameter and d is the diameter perpendicular to D. Volumes are expressed as relative tumor volumes (RTV) where the tumor volume at any given time point is divided by the starting tumor volume. The RTV for treated and control mice were measured a minimum of once per week.
A partial response is defined as greater than 50% regression in tumor volume (RTV<0.5) but with a measurable tumor mass of greater than 0.10 cm^3. Loss of measurable tumor mass (<0.10 cm^3) at any point during the treatment period (6 weeks) was defined as a complete response (CR). […]

SMILES: O=P(O)(NCCCl)NCCCl [IPM, isophosphoramide mustard]
- Solubility at 25° C. (saline) [1]: 14 mg/mL (≈ 63.3 mM)
- % Purity ([2]; 0.5 hours): 89.5%
- % Purity ([2]; 1.0 hours): 80.3%
- % Purity ([2]; 2.0 hours): 64.8%
- % Purity ([2]; 3.0 hours): 52.1%
- % Purity ([2]; reconstitution time 0 hours): 100.00%
- maximum loss in mean body weight ([3]; ip q1d×5, 24 mg/kg/dose): 5%
- tumor growth delay (T-C) ([3]; ip q1d×5, 24 mg/kg/dose): 2.6 days
- maximum loss in mean body weight ([3]; ip q1d×5, 36 mg/kg/dose): 0%
- maximum loss in mean body weight ([3]; po q1d×5, 81 mg/kg/dose): 5%
- tumor growth delay (T-C) ([3]; po q1d×5, 81 mg/kg/dose): 4.0 days
- maximum loss in mean body weight ([3]; po q1d×5, 120 mg/kg/dose): 5%
- tumor growth delay (T-C) ([3]; po q1d×5, 120 mg/kg/dose): 4.6 days
- maximum loss in mean body weight (MX-1 human mammary tumor; ip q1d×5, 24 mg/kg/dose): 2%
- tumor growth delay (T-C) (MX-1 human mammary tumor; ip q1d×5, 24 mg/kg/dose): 0.3 days
- maximum loss in mean body weight (MX-1 human mammary tumor; ip q1d×5, 36 mg/kg/dose): 8%
- maximum loss in mean body weight (MX-1 human mammary tumor; po q1d×5, 81 mg/kg/dose): 9%
- tumor growth delay (T-C) (MX-1 human mammary tumor; po q1d×5, 81 mg/kg/dose): 2.3 days
- maximum loss in mean body weight (MX-1 human mammary tumor; po q1d×5, 120 mg/kg/dose): 18%
- tolerability (MX-1 human mammary tumor; po q1d×5, 120 mg/kg/dose): toxic
- deaths (MX-1 human mammary tumor; po q1d×5, 120 mg/kg/dose, eight mice per group): two deaths
- pH (pH (Example 16)): 3.02
- Current Stability Data Summary: No change in purity at [4]: −70° C., 2 years

SMILES: O=P1(N(CCCl)CCCl)NCCCO1 (stereo not drawn) [CPA, cyclophosphamide]
- effect of therapy on sarcoma growth [5]: no effect
